In ChEMBL document CHEMBL1697692, “Developing structure-activity relationships for the prediction of hepatotoxicity” (Chem Res Toxicol, 2010):
Numbered stars: 1 amine (or outer) side, 2 acyl side, 3 side chain; on linkers, the order of the positions; unused ones are H or OH. Bridge positions count the residues as written; N and C are the ends. Square brackets hold non-standard residues; d marks the D form. Peptide text beside a SMILES is read from it. Adda = CO[C@@H](Cc1ccccc1)[C@@H](C)/C=C(C)/C=C/[C@H](N[*:1])[C@H](C)C(=O)[*:2]; dAsp(3S-Me) = C[C@H](C(=O)[*:3])[C@@H](N[*:1])C(=O)[*:2]; d(γGlu) = O=C(O)[C@@H](CCC(=O)[*:2])N[*:1]; NMeDha = C=C(NC)C(=O)O

Test system: Hepatotoxicity
Assay: Literature-mined public compounds from Greene et al multi-species hepatotoxicity modelling dataset

Compound	Hepatotoxicity
CN1CCC(=C2c3ccccc3CCc3cccnc32)CC1.O=C(O)/C=C\C(=O)O.O=C(O)/C=C\C(=O)O [AZATADINE MALEATE]	HH: Evidence of human hepatotoxicity
CN(C)C(=N)N=C(N)N [METFORMIN]	WE: Weak evidence (<10 case reports) of human hepatotoxicity
CN/C(=N/CCSCc1nc[nH]c1C)NC#N [CIMETIDINE]	WE: Weak evidence (<10 case reports) of human hepatotoxicity
ClC(Cl)(Cl)Cl [CARBON TETRACHLORIDE]	HH: Evidence of human hepatotoxicity
CC1(C)S[C@@H]2[C@H](NC(=O)[C@H](N)c3ccc(O)cc3)C(=O)N2[C@H]1C(=O)O [AMOXICILLIN]	WE: Weak evidence (<10 case reports) of human hepatotoxicity
C=C1C(=O)N[C@H](C)C(=O)N[C@@H](CC(C)C)C(=O)N[C@@H](C(=O)O)[C@H](C)C(=O)N[C@@H](CCCNC(=N)N)C(=O)N[C@@H](/C=C/C(C)=C/[C@H](C)[C@H](Cc2ccccc2)OC)[C@H](C)C(=O)N[C@@H](C(=O)O)CCC(=O)N1C [MICROCYSTIN-LR] (R[Adda][d(γGlu)][NMeDha][dA]L[dAsp(3S-Me)]-OH; lactam N-7)	AH: Evidence for animal hepatotoxicity but not tested in humans
CN1CCC[C@@H]1CCO[C@](C)(c1ccccc1)c1ccc(Cl)cc1.O=C(O)/C=C/C(=O)O [CLEMASTINE FUMARATE]	NE: No evidence of hepatotoxicity in any species
CNCCc1ccccn1.Cl.Cl [BETAHISTINE HYDROCHLORIDE]	HH: Evidence of human hepatotoxicity
OCC(S)CS (configuration not stated) [DIMERCAPROL]	HH: Evidence of human hepatotoxicity
O=[As][As+](=O)[O-] (configuration not stated) [ARSENIC TRIOXIDE]	HH: Evidence of human hepatotoxicity
NC(CO)(CO)CO.O=C(c1ccccc1)c1ccc2n1CCC2C(=O)O (configuration not stated) [KETOROLAC TROMETHAMINE]	HH: Evidence of human hepatotoxicity
CC1=C(/C=C/C(C)=C/C=C/C(C)=C\C(=O)O)C(C)(C)CCC1 [ISOTRETINOIN]	HH: Evidence of human hepatotoxicity
Cc1onc(-c2c(Cl)cccc2Cl)c1C(=O)N[C@@H]1C(=O)N2[C@@H]1SC(C)(C)[C@@H]2C(=O)[O-].O.[Na+] [DICLOXACILLIN SODIUM]	HH: Evidence of human hepatotoxicity
O=C1CCC(=O)N1c1cc(Cl)cc(Cl)c1 [DIMETHACHLON]	AH: Evidence for animal hepatotoxicity but not tested in humans
O=C(Cc1cccs1)N[C@@H]1C(=O)N2C(C(=O)[O-])=C(C[n+]3ccccc3)CS[C@H]12 [CEPHALORIDINE]	AH: Evidence for animal hepatotoxicity but not tested in humans
CC(=O)O.O=C(NCC1CCCCN1)c1cc(OCC(F)(F)F)ccc1OCC(F)(F)F (configuration not stated) [FLECAINIDE ACETATE]	HH: Evidence of human hepatotoxicity
CN(C)CCC=C1c2ccccc2CCc2ccccc21.Cl [AMITRIPTYLINE HYDROCHLORIDE]	WE: Weak evidence (<10 case reports) of human hepatotoxicity
CN(C)CCN(Cc1cccs1)c1ccccn1	HH: Evidence of human hepatotoxicity
CCCC[C@@H](CC)COC(=O)c1ccccc1C(=O)OC[C@@H](CC)CCCC [BIS(2-ETHYLHEXYL)PHTHALATE]	AH: Evidence for animal hepatotoxicity but not tested in humans
COc1cc2c(c(OC)c1OC)-c1ccc(OC)c(=O)cc1[C@@H](NC(C)=O)CC2 [COLCHICINE]	WE: Weak evidence (<10 case reports) of human hepatotoxicity
CO/N=C(/C(=O)N[C@@H]1C(=O)N2C(C(=O)[O-])=C(CSc3nc(=O)c(O)nn3C)CS[C@H]12)c1csc(N)n1.[Na+]	HH: Evidence of human hepatotoxicity

Compound	Hepatotoxicity
C[N+](C)(C)CCOP(=O)(O)OP(=O)([O-])OC[C@H]1O[C@@H](n2ccc(N)nc2=O)[C@H](O)[C@@H]1O [CITICOLINE]	NE: No evidence of hepatotoxicity in any species
CC[C@@H](CO)NC(=O)[C@@H]1C=C2c3cccc4[nH]cc(c34)C[C@H]2N(C)C1.O=C(O)/C=C\C(=O)O [METHYLERGONOVINE MALEATE]	NE: No evidence of hepatotoxicity in any species
C[C@H](CCc1ccccc1)NC[C@H](O)c1ccc(O)c(C(N)=O)c1 [DILEVALOL]	HH: Evidence of human hepatotoxicity
CCCCc1ncc(/C=C(\Cc2cccs2)C(=O)O)n1Cc1ccc(C(=O)O)cc1 [EPROSARTAN]	WE: Weak evidence (<10 case reports) of human hepatotoxicity
Oc1c(Cl)cc(Cl)cc1Sc1cc(Cl)cc(Cl)c1O [BITHIONOL]	HH: Evidence of human hepatotoxicity
Cc1cc(CC(=O)O)n(C)c1C(=O)c1ccc(Cl)cc1 [ZOMEPIRAC]	NE: No evidence of hepatotoxicity in any species
CS(=O)(=O)OCCOS(C)(=O)=O [ETHANE DIMETHANE SULFONATE]	AH: Evidence for animal hepatotoxicity but not tested in humans
CC(=O)Nc1cccc(O)c1 [METACETAMOL]	WE: Weak evidence (<10 case reports) of human hepatotoxicity
CC(COc1ccccc1)N(CCCl)Cc1ccccc1.Cl (configuration not stated) [PHENOXYBENZAMINE HYDROCHLORIDE]	NE: No evidence of hepatotoxicity in any species
Cl.N [AMMONIUM CHLORIDE]	NE: No evidence of hepatotoxicity in any species
O=C(O)c1cc(=O)c2c(OCC(O)COc3cccc4oc(C(=O)O)cc(=O)c34)cccc2o1 [CROMOLYN]	NE: No evidence of hepatotoxicity in any species
CC(C)Cc1ccc(CC(=O)O)cc1 [IBUFENAC]	HH: Evidence of human hepatotoxicity
Cc1c(F)c(N2CCNC(C)C2)cc2c1c(=O)c(C(=O)O)cn2C1CC1 (configuration not stated) [GREPAFLOXACIN]	HH: Evidence of human hepatotoxicity
Nc1ccc(C(=O)[O-])cc1.[K+] [AMINOBENZOATE POTASSIUM]	NE: No evidence of hepatotoxicity in any species
CN1c2ccccc2C(NCCCCCCC(=O)O)c2ccc(Cl)cc2S1(=O)=O (configuration not stated) [TIANEPTINE]	HH: Evidence of human hepatotoxicity
Cc1cn([C@H]2C[C@H](N=[N+]=[N-])[C@@H](CO)O2)c(=O)[nH]c1=O [ZIDOVUDINE]	HH: Evidence of human hepatotoxicity
COc1cc(C(=O)NS(=O)(=O)c2ccccc2C)ccc1Cc1cn(C)c2ccc(NC(=O)OC3CCCC3)cc12 [ZAFIRLUKAST]	HH: Evidence of human hepatotoxicity
CN[C@@H]1[C@H](O[C@H]2[C@H](O[C@H]3[C@H](O)[C@@H](O)[C@H](N=C(N)N)[C@@H](O)[C@@H]3N=C(N)N)O[C@@H](C)[C@]2(O)C=O)O[C@@H](CO)[C@H](O)[C@H]1O.CN[C@@H]1[C@H](O[C@H]2[C@H](O[C@H]3[C@H](O)[C@@H](O)[C@H](N=C(N)N)[C@@H](O)[C@@H]3N=C(N)N)O[C@@H](C)[C@]2(O)C=O)O[C@@H](CO)[C@H](O)[C@H]1O.O=S(=O)(O)O.O=S(=O)(O)O.O=S(=O)(O)O [STREPTOMYCIN SULFATE]	NE: No evidence of hepatotoxicity in any species
CCCCCCCCCCCCCCCC(=O)OC/C=C(C)/C=C/C=C(C)/C=C/C1=C(C)CCCC1(C)C [VITAMIN A PALMITATE]	AH: Evidence for animal hepatotoxicity but not tested in humans
O=C(O)COc1ccc(C(=O)c2cccs2)c(Cl)c1Cl	HH: Evidence of human hepatotoxicity
CCc1oc2ccccc2c1C(=O)c1cc(Br)c(O)c(Br)c1 [BENZBROMARONE]	HH: Evidence of human hepatotoxicity
